{"source": "patent US7795226B2", "about": "“Control of radiation injury” (Biotempt B.V., priority 2006, dated 2010)", "key": {"[1]": {"system": "mice after Whole Body Irradiation", "test": "Dose Reduction Factor (DRF) test, escalating WBI doses", "format": "in vivo", "details": "for Percent alive at day 30 / Percent dead at day 30 / The absolute number of animals alive at 30 days post WBI: 10 mg/kg s.c. single dose at day 3", "experimental": "Escalating doses of Whole Body Irradiation (WBI), with one single exposure given to any particular cohort, and the exposure dose going progressively higher, for each subsequent cohort. A single dose of peptide EA-230 (AQGV (SEQ ID NO:120)) was administered subcutaneously, but with treatment delayed until three days (72 hours) after the WBI. The test is called the Dose Reduction Factor (“DRF”), which is defined as ratio between the LD50 of the treated group to the LD50 of the control group. The LD50 refers to that dose which is lethal to 50% of the animals tested. An acceptable DRF value is 1.20.\nIn this example we report on escalating dose studies of Whole Body Irradiation (WBI) with one single exposure given to any particular cohort, and the exposure dose going progressively higher for each subsequent cohort. A single dose of peptide AQGV (SEO ID NO:120) (10 mg/kg) was administered subcutaneously, but with treatment delayed until three days (72 hours) after the WBI. The test is called the Dose Reduction Factor (“DRF”), which is defined as ratio between the LD50 of the treated group to the LD50 of the control group. The LD50 refers to that dose which is lethal to 50% of the animals tested.\nAn acceptable DRF ratio is a factor of at least 1.10; but preferred is at least 1.20 or even at least 1.25."}, "[2]": {"system": "C57B1/6 mice after Whole Body Irradiation", "test": "Whole Body Irradiation 8.6 Gy, treatment from three hours after WBI", "format": "in vivo", "experimental": "“WBI” stands for Whole Body Irradiation. Radiation damage protection in vivo was assessed after WBI (6.5 to 9.8 Gy, Philips MG 30 at 81 cGy/min) on anesthetized C57B1/6 mice, and survival differences were measured by Kaplan-Meirer analysis. All groups of mice got the first injection with peptide or vehicle (control animals) three hours after the WBI. The group that got a placebo injection experienced 80% mortality, as predicted in this model. The dose of radiation of 8.6 Gray (=8.6 Gy) is known, in this species, to cause about an 80% mortality, so it is called the LD80 (lethal dose for 80%). The deaths started around Day 10, which is typical for what happens in WBI to animals or humans. By around Day 10, the gut lining is so damaged and leaky from the radiation that bacteria get into the circulation and cause gastrointestinal syndrome, and the bone marrow is so damaged that there is an insufficient number of white blood cells to fight the infection (“Bone Marrow Syndrome”), and death ensues. The group with “x” as the symbol got the first injection IV, and the second injection subcutaneously (SC) three hours after that first injection. 100% of these animals survived. […] To an outside observer, they would look like perfectly normal mice. The group with the triangle symbol got its first injection of the peptide via the SC route. Then it got additional SC injections every 48 hours, for a total of three doses (in addition to the first dose), meaning, on Day 3, Day 5, and Day 7. […] The group with the square symbol was identical in procedures to the group with the triangle symbol, except that the 48 hour SC injections continued on until a total of six doses had been injected (in addition to the first dose). So the dosing continued on until Day 13. […] When the animals got lower-level treatment (SC only), if the treatment was prolonged until the second week, here again, there was complete protection.\nThe group that got a placebo injection experienced 80% mortality, as predicted in this model. The dose of radiation given (8.6 Gray =8.6 Gy) is known, in this species, to cause about an 80% mortality, so it is called the LD80 (lethal dose for 80%). The deaths starting around Day 10, which is typical for what happens in WBI to animals or humans. By around Day 10, the gut lining is so damaged and leaky from the radiation that bacteria get into the circulation and cause sepsis because of Gastrointestinal (GI) Syndrome, and the bone marrow is so damaged that there is an insufficient number of white blood cells to fight the infection (“Bone Marrow Syndrome”), and death ensues.\nA first group of peptide-treated mice (group with “x” as the symbol in FIG. 1) got the first injection with AQGV (SEO ID NO:120) IV, and the second injection subcutaneously (SC) three hours after that first injection.\nA second group of mice got its first injection of the peptide via the SC route. Then it got additional SC injections every 48 hours, for a total of three doses (in addition to the first dose), meaning, on Day 3, Day 5, and Day 7.\nThe third group of mice was identical in procedures to the group with the second group, except that the q48 hour SC injections continued on until a total of six doses had been injected (in addition to the first dose). So the dosing continued on until Day 13."}, "[3]": {"system": "LPS-induced septic shock in mice", "details": "single treatment after high dose LPS injection; cited from earlier work"}, "[4]": {"details": "first SC injection three hours after WBI, then SC every 48 hours, six additional doses"}, "[5]": {"details": "first injection IV three hours after WBI, second SC three hours later"}}, "data": [{"substance": "AQGV", "values": [{"measurement": "Dose Reduction Factor (factor by which the radiation dose has to be increased to kill 50% of the animals)", "setting": "[1]; 10 mg/kg s.c. single dose 72 hours after WBI, LD50 treated / LD50 control", "result": 1.25}, {"measurement": "radiation dose that kills 50% of the treated animals (LD50)", "setting": "[1]; 10 mg/kg s.c. single dose 72 hours after WBI, day 30", "result": "~10.4", "unit": "Gy"}, {"measurement": "Percent alive at day 30", "setting": "[1]; WBI 8.6 Gy", "result": 100, "unit": "%"}, {"measurement": "Percent dead at day 30", "setting": "[1]; WBI 8.6 Gy", "result": 0, "unit": "%"}, {"measurement": "The absolute number of animals alive at 30 days post WBI", "setting": "[1]; WBI 8.6 Gy", "result": 20}, {"measurement": "Percent alive at day 30", "setting": "[1]; WBI 9.2 Gy", "result": 100, "unit": "%"}, {"measurement": "Percent dead at day 30", "setting": "[1]; WBI 9.2 Gy", "result": 0, "unit": "%"}, {"measurement": "The absolute number of animals alive at 30 days post WBI", "setting": "[1]; WBI 9.2 Gy", "result": 10}, {"measurement": "Percent alive at day 30", "setting": "[1]; WBI 9.8 Gy", "result": 100, "unit": "%"}, {"measurement": "Percent dead at day 30", "setting": "[1]; WBI 9.8 Gy", "result": 0, "unit": "%"}, {"measurement": "The absolute number of animals alive at 30 days post WBI", "setting": "[1]; WBI 9.8 Gy", "result": 10}, {"measurement": "Percent alive at day 30", "setting": "[1]; WBI 10.4 Gy", "result": 40, "unit": "%"}, {"measurement": "Percent dead at day 30", "setting": "[1]; WBI 10.4 Gy", "result": 60, "unit": "%"}, {"measurement": "The absolute number of animals alive at 30 days post WBI", "setting": "[1]; WBI 10.4 Gy", "result": 4}, {"measurement": "Percent alive at day 30", "setting": "[1]; WBI 11.0 Gy", "result": 0, "unit": "%"}, {"measurement": "Percent dead at day 30", "setting": "[1]; WBI 11.0 Gy", "result": 100, "unit": "%"}, {"measurement": "The absolute number of animals alive at 30 days post WBI", "setting": "[1]; WBI 11.0 Gy", "result": 0}, {"measurement": "mortality after WBI (in words)", "setting": "[2]; [4]", "result": "no mortality whatsoever"}, {"measurement": "signs of sickness after WBI (in words)", "setting": "[2]; [4]", "result": "showed no signs of sickness"}, {"measurement": "mortality after WBI (in words)", "setting": "[2]; first SC injection three hours after WBI, then SC every 48 hours, three additional doses", "result": "only one of these animals died"}, {"measurement": "signs of sickness after WBI (in words)", "setting": "[2]; [5]", "result": "did not show any signs of sickness at all"}, {"measurement": "survival after WBI", "setting": "[2]; [5]", "result": 100, "unit": "%"}]}, {"substance": "VLPALP (hexamer peptide)", "values": [{"measurement": "septic shock in mice (in words)", "setting": "[3]", "result": "inhibited septic shock in mice"}]}]}
